Experimental data taken from ChEMBL document CHEMBL2151020, “JBIR-129 and -139, cytotoxic 34-membered polyol macrolides of microbial origin” (J Nat Prod, 2012).

Tested on: SK-OV-3
Experiment: Cytotoxicity against human SKOV3 cells after 72 hrs by WST8 assay
Type: functional, cell-based
Conditions: SK-OV-3, 72 h

Point of comparison: `CCC(O[C@H]1CC[C@H](O[C@H]2CC[C@H](O)[C@@H](C)O2)[C@@H](C)O1)C(C)C(O)C(C)C(O)C(C)C1C/C=C/C=C/C(O)CC(O)C(C)C(O)CC(O[C@@H]2O[C@H](CO)[C@H](O)[C@H](O)[C@H]2NC(C)=O)C(C)C2CC(O)C(O)C(O)(CC(O[C@@H]3O[C@H](C)[C@@H](O)[C@H](O[C@H]4C[C@@H](O)[C@H](O)[C@@H](C)O4)[C@H]3O[C@@H]3O[C@H](C)[C@@H](O)[C@H](O)[C@H]3O)C(C)CCC(O)CC(O)C/C=C/C=C/C(=O)O1)O2` (stereo partly drawn), IC50 400 nM. Against it:
- CCC(O[C@H]1CC[C@H](O[C@H]2CC[C@H](O)[C@@H](C)O2)[C@@H](C)O1)C(C)C(O)C(C)C(O)C(C)C1C/C=C/C=C/C(O)CC(O)C(C)C(O)CC(O)C(C)C2CC(O)C(O)C(O)(CC(O[C@@H]3O[C@H](C)[C@@H](O)[C@H](O[C@H]4C[C@@H](O)[C@H](O)[C@@H](C)O4)[C@H]3O[C@@H]3O[C@H](C)[C@@H](O)[C@H](O)[C@H]3O)C(C)CCC(O)CC(O)C/C=C/C=C/C(=O)O1)O2 (stereo partly drawn) — within 1.5-fold, 300 nM
- COc1cccc2c1C(=O)c1c(O)c3c(c(O)c1C2=O)C[C@@](O)(C(=O)CO)C[C@@H]3O[C@H]1C[C@H](N)[C@H](O)[C@H](C)O1 [DOXORUBICIN] — 13-fold lower, 30 nM
